From patent US20020197281A1, “Composition cantaining a peptide and a pigment and the use thereof in darkening the skin” (priority 2001, published 2002)

Experiments:
[1] = tested on: keratinocyte-melanocyte co-cultures (Human HaCaT keratinocytes, Human primary melanocytes); test: Induced pigmentation in keratinocyte-melanocyte co-cultures (DOPA staining, computerized image analysis); type: cell-based; conditions: three daily treatments; for Mean area: DOPA-stained relative pigmented area; for % increase: normalized to control
Method: The peptides Peptide 1 and Peptide 3 and various pigments were tested, alone or in combination, with keratinocyte-melanocyte cultures for their effect on cell pigmentation, using DOPA staining and computerized image analysis. The pigments that were tested were the pigmented natural extracts Bearberry extract from Alban Muller International (Vincennes, France) and Hedychium spicatum extract sold as Kapur Kachali from Amsar Private Limited (Indore, India), copper chloride from Sigma (St. Louis, Mo.) and the water-soluble melanin derivatives Melasyn-100™ from San-mar laboratories, Inc. (Elmsford, N.Y.) and MelanZe™ from Zylepsis (Ashford, Kent, United Kingdom). The pigments were tested at concentrations ranging from 0.0001%(W/V) to 1%(W/V) and the peptides were tested at 50 μM.
The assay was conducted in the following manner. Human HaCaT keratinocytes (Boukamp P., et al., J Cell Biol 106, 3, 761-771 (1988)) were maintained in Dulbecco's Modified Eagle's Medium (DMEM) containing 10% fetal bovine serum (FBS), 4.5 mg/ml glucose, 2 mM L-glutamine, 50 U/ml penicillin and 50 μg/ml streptomycin (Life Technologies, Gaithersburg, Md.). Cells were maintained at <80% confluency in 5% CO2 (v/v) and were used in experimental procedures up to culture passage 15. Human primary melanocytes (Clonetics, San Diego, Calif. or Cascade Biologics, Portland, Oreg.) were maintained according to manufacturer's instructions. To establish keratinocyte-melanocyte co-cultures, 6×10^4 melanocytes were plated in each well of a 24 well plate and maintained according to manufacturer's instructions.
Melanocytes were rinsed three times with melanocyte growth media without PMA and keratinocytes (6×10^4) were plated to establish the co-cultures in this media. Co-cultures were treated for three days with test peptides and pigments, and assayed for cell viability and pigment level on the forth day. Cell viability was assayed using alamarBlue™ (Acumed International, West Lake, Ohio) following manufacturer's instructions. No change in viability was observed following three daily treatments with all tested material. All in vitro experiments were performed in triplicates, and were repeated at least three times.
Following three daily treatments, the co-cultures were briefly fixed (10% buffered formalin from Fisher Scientific, 15 minutes), washed three times with Phosphate-buffered saline (PBS, from Life Technologies) and stained with L-3,4-Dihydroxyphenylalanine (DOPA, from Sigma, St. Louis, Mo.) 0.1% in PBS, for 5 hours at 37° C., followed by two PBS washes and formalin (10%, overnight) fixation. DOPA is a substrate for tyrosinase, therefore an increase in staining represents increased tyrosinase activity and pigment production. DOPA-stained monolayers were used for image analysis. All images were obtained and analyzed with Image Pro Plus 3.0 software (Media Cybernetics, Silver Spring, Md.). Parameters measured were surface area of stained material within melanocyte and keratinocytes and the total surface area of the cells in the culture, and the relative pigmented area was calculated. A value of 100% was assigned to untreated controls, and values of treatment groups were normalized to their relevant controls. In all experiments there was no difference between PBS-treated cells and untreated controls. Data are presented with standard deviation (SigmaPlot® 5.0, SPSS Science, Chicago, Ill.).
Forskolin (Sigma, St. Louis, Mo.), a known inducer of pigmentation, served as a positive control and a reference point. Forskolin was administered at 1% (W/V).

[2] = tested on: Dark skinned Yucatan microswine; test: Induced pigmentation in vivo, F&M-stained skin sections of topically treated swine; design: key: −1: Slight lightening; 0: No change; 1: Minimal increase in pigment deposition; 2: Increased pigment deposition; 3: Strong increase in pigment deposition, some increase in caps; 4: Strong increase in pigment deposition, strong increase in caps; conditions: topical twice a day, five days/week, eight or nine weeks; peptides 250 or 500 μM, pigments 1% or 5% (W/V), positive controls 1% (W/V); average of all sites of responsive swine
Method: Compositions of the present invention were tested for their ability to induce in vivo pigmentation in skin cells in the following experiment. Dark skinned Yucatan microswine (Charles River, Portland, Me.) were housed in appropriately sized cages in an environmentally controlled room with a 12-hour light-12-hour dark photoperiod and supplied with food and water ad libitum. Animal care was based on the “Guide for the Care and Use of Laboratory Animals”, NIH Publication No. 85-23. Twenty μl of test peptides were applied topically, twice a day, five days/week, for eight or nine weeks, on the dorsum of the swine. Treatments of individual swine were always arranged in a head to tail order on one side, and in a tail to head order on the other side of the animal. Biopsies were taken using standard techniques.
Sections from the skin biopsies were stained with Hematoxylin and Eosin (H&E), or with Fontana-Mason (F&M), using standard procedures (Sheenan D C, Hrapckak B B, eds., Theory and Practice of Histo-technology. p. 223, 277, The C.V. Mosby Co., St. Louis (1980)). F&M staining identifies silver nitrate reducing molecules. In skin, this non-specific stain identifies primarily melanin. At least three sections per biopsy were processed. Each experiment was repeated at least three times.
Swine were treated with either: the known skin darkening agent forskolin (Sigma) or with a Coleus forskoli extract (ATZ Naturals, Englewood Cliffs, N.J.) which contains forskolin, as a positive control at 1% (W/V); pigments at 1% or 5% (W/V); peptides of this invention at 250 μM or 500 μM; and combinations of such peptides at 250 μM or 500 μM with pigments at 1% (W/V). Pigments tested include pigmented natural extracts (i.e., Bearberry extract and Hedychium spicatum extract) and synthetic compounds (i.e., the soluble melanin compound Melasyn-100™). These test compounds were dissolved in ethanol: propylene glycol 70:30 (v/v). […]
F&M-stained histological skin sections were evaluated for the change in pigment deposition within the treated site. […]

## [Cl][Cu][Cl] [CuCl2, copper chloride]
[1]; pigment alone 0.001% (W/V)
  Mean area: 0.064
  % increase: 220%

## C=C[C@@]1(C)CC(=O)[C@]2(O)[C@@]3(C)[C@@H](O)CCC(C)(C)[C@@H]3[C@H](O)[C@H](OC(C)=O)[C@@]2(C)O1 [Forskolin, reference compound]
[2]
  Score (change in pigment deposition): 1
[1]; positive control 1% (W/V)
  Mean area: 0.067
  % increase: 231.0%

## H2-Leu-Ile-Gly-Arg-NH2 (H-LIGR-NH2) [Peptide 1]
[2]
  Score (change in pigment deposition): 1-2
[1]; peptide alone 50 μM
  Mean area: 0.080
  % increase: 279%

## H2-Ser-Leu-Ile-Gly-Arg-Leu-NH2 (H-SLIGRL-NH2) [Peptide 3]
[2]
  Score (change in pigment deposition): 2-3
